# Experiments:
# [1] = system: Na^+/K^+ ATPase current (INaK); experiment: Na+/K+ ATPase current (INaK) in isolated rat LV myocytes; format: cell-based; details: isolated rat cardiomyocytes
# [2] = Acute toxicity (LD50) in mice; details: male, Albino Swiss CD-1, mouse, in vivo
# Experimental: Acute toxicity (LD50) was preliminarily evaluated in mice following i.v. and oral drug administration.
# Control animals received the vehicle only.
# Drug toxicity studies in mice
# Acute toxicity was determined in CD1 mice. Separate mice groups were either orally treated, or
# intravenously injected, with increasing doses of the tested substance to identify the dose causing 50%
# mortality (LD50). Acute mortality was assessed at 30 min after compound administration; survival was
structure (smiles),measurement,setting,value
C[C@]12CC[C@H](CCCC(=O)O)C[C@@H]1[C@@H](O)C[C@@H]1[C@@H]2CC[C@]2(C)C(=O)CC[C@@H]12 [Compound 5],concentration above which INaK inhibition is detectable,[1],higher than 20 μM
same,LD50 at 24 h,[2]; iv,300 mg/kg
same,LD50 at 24 h,[2]; po,> 800 mg/kg

# From publication PMC9150102 (Journal of Medicinal Chemistry, 2022)
